Measured values taken from US20170342026A1, “ISOPROPOXY-PHENYLGUANIDINE SERIES SALT AND APPLICATION THEREOF IN PREPARING GROWTH PROMOTERS FOR ANIMAL FEED” (GUANGZHOU INSIGHTER BIOTECHNOLOGY CO., LTD., priority 2015, published 2017).

How the values were obtained:
Assay type in all cases: in vivo
[1] = tested on: Duroc×Landrace×Large White piglets; assay: Effects of the salts of isopropoxy-phenylguanidine in a feed for pigs; conditions: 100 ppm in feed; for Average daily weight gain / Feed conversion ratio: piglets aged 28 days; for effect on production performance compared with hydrochloride: pigs, 28 days
Method: One hundred and twenty (120) Duroc×Landrace×Large White piglets aged 28 days with similar body weight were randomly divided into 6 groups, each with 20 pigs. Different types of salts of isopropoxy-phenylguanidine were added to the feeds respectively in accordance with Table 3. The pigs were free feeding and drinking during the test period of 28 days.

broilers [2] = assay: Effects of the series of salts of isopropoxy-phenylguanidine on production performance of broilers; conditions: 50 ppm in feed, 30 days; for Average daily weight gain / Average feed conversion ratio / Survival rate (%): 1-day-old broilers; for effect on production performance compared with hydrochloride: broilers
Method: One thousand and five hundred (1500) 1-day-old broilers were divided into 15 groups and each group with 100 broilers. Different types of salts of isopropoxy-phenylguanidine were added to the same basic diets. The broilers were free feeding and drinking and continued feeding for 30 days, then to collect statistics of the production performance and the survival rate of broilers in each group.

Cherry Valley ducks = assay: Effects of the salts of isopropoxy-phenylguanidine in a feed for ducks; conditions: 50 ppm in feed, 28 days; for Average daily weight gain / Feed conversion ratio: ducks aged 1 day; for effect on production performance compared with hydrochloride: ducks
Method: Six hundred (600) Cherry Valley ducks aged 1 day were randomly divided into 6 groups, each with 100 ducks. Different types of salts of isopropoxy-phenylguanidine were added to the feed according to Table 4. The ducks were free feeding and drinking during the test period of 28 days.

broilers [3] = assay: Effects of different concentrations of isopropoxy-phenylguanidine methanesulfonate on production performance of broilers
Method: Eight hundred (800) broilers aged 1 day were divided into 8 groups and each group with 100 broilers. Different concentrations of isopropoxy-phenylguanidine methanesulfonate were added to the same basic diets. The broilers were free feeding and drinking and continued feeding for 30 days, then to collect statistics of the production performance and the survival rate of broilers in each group.

[4] = broilers, 5 ppm in feed, 30 days
[5] = broilers, 10 ppm in feed, 30 days
[6] = broilers, 20 ppm in feed, 30 days
[7] = broilers, 50 ppm in feed, 30 days
[8] = broilers, 100 ppm in feed, 30 days
[9] = broilers, 200 ppm in feed, 30 days
[10] = broilers, 500 ppm in feed, 30 days

## CC(C)Oc1ccc(C=NNC(=N)NN=Cc2ccc(OC(C)C)cc2)cc1.O=S(=O)(O)CCO [2,2′-bis[[4-(isopropoxy)phenyl]methylene]-diaminoguanidine 2-hydroxyethylsulfonate]
[1]
  Average daily weight gain: 537 g
  Feed conversion ratio: 1.697
  effect on production performance compared with hydrochloride: better than hydrochloride
Broilers [2]
  Average daily weight gain: 49.1 g
  Average feed conversion ratio: 1.987
  Survival rate (%): 100%
  effect on production performance compared with hydrochloride: better than hydrochloride
Cherry Valley ducks
  Average daily weight gain: 67.9 g
  Feed conversion ratio: 1.835
  effect on production performance compared with hydrochloride: better than hydrochloride

## CC(C)Oc1ccc(C=NNC(=N)NN=Cc2ccc(OC(C)C)cc2)cc1.CS(=O)(=O)O [2,2′-bis[[4-(isopropoxy)phenyl]methylene]-diaminoguanidine methanesulfonate]
[1]
  Average daily weight gain: 529 g
  Feed conversion ratio: 1.713
  effect on production performance compared with hydrochloride: better than hydrochloride
Broilers [2]
  Average daily weight gain: 48.8 g
  Average feed conversion ratio: 1.999
  Survival rate (%): 100%
  effect on production performance compared with hydrochloride: better than hydrochloride
Broilers [3]; [4]
  Daily weight gain: 42.3 g
  Feed conversion ratio: 2.150
  Survival rate (%): 100%
Broilers [3]; [5]
  Daily weight gain: 43.4 g
  Feed conversion ratio: 2.138
  Survival rate (%): 100%
Broilers [3]; [6]
  Daily weight gain: 44.5 g
  Feed conversion ratio: 2.119
  Survival rate (%): 100%
Broilers [3]; [7]
  Daily weight gain: 48.9 g
  Feed conversion ratio: 2.087
  Survival rate (%): 100%
Broilers [3]; [8]
  Daily weight gain: 49.6 g
  Feed conversion ratio: 2.076
  Survival rate (%): 100%
Broilers [3]; [9]
  Daily weight gain: 49.2 g
  Feed conversion ratio: 2.071
  Survival rate (%): 100%
Broilers [3]; [10]
  Daily weight gain: 49.5 g
  Feed conversion ratio: 2.073
  Survival rate (%): 100%
Broilers [3]; different concentrations (5-500 ppm) in feed, 30 days
  effect on production performance of broilers: significantly improve the production performance
Broilers [3]; high concentrations in feed, broilers
  negative impacts on the production performance: no negative impacts
Cherry Valley ducks
  Average daily weight gain: 68.4 g
  Feed conversion ratio: 1.831
  effect on production performance compared with hydrochloride: better than hydrochloride

## CC(=O)O.CC(C)Oc1ccc(C=NNC(=N)NN=Cc2ccc(OC(C)C)cc2)cc1 [isopropoxy-phenylguanidine acetate, 2,2′-bis[[4-(isopropoxy)phenyl]methylene]-diaminoguanidine acetate]
Broilers [2]
  Average daily weight gain: 43.2 g
  Average feed conversion ratio: 2.129
  Survival rate (%): 99%

## CC(C)Oc1ccc(C=NNC(=N)NN=Cc2ccc(OC(C)C)cc2)cc1.O=C(O)c1ccccc1 [isopropoxy-phenylguanidine benzoate, 2,2′-bis[[4-(isopropoxy)phenyl]methylene]-diaminoguanidine benzoate]
Broilers [2]
  Average daily weight gain: 44.7 g
  Average feed conversion ratio: 2.126
  Survival rate (%): 100%

## CC(C)Oc1ccc(C=NNC(=N)NN=Cc2ccc(OC(C)C)cc2)cc1.O=C(O)CC(O)(CC(=O)O)C(=O)O [isopropoxy-phenylguanidine citrate, 2,2′-bis[[4-(isopropoxy)phenyl]methylene]-diaminoguanidine citrate]
[1]
  Average daily weight gain: 491 g
  Feed conversion ratio: 1.803
Broilers [2]
  Average daily weight gain: 44.5 g
  Average feed conversion ratio: 2.125
  Survival rate (%): 100%

## CC(C)Oc1ccc(C=NNC(=N)NN=Cc2ccc(OC(C)C)cc2)cc1.O=C(O)/C=C/C(=O)O [isopropoxy-phenylguanidine fumarate, 2,2′-bis[[4-(isopropoxy)phenyl]methylene]-diaminoguanidine fumarate]
Broilers [2]
  Average daily weight gain: 44.1 g
  Average feed conversion ratio: 2.136
  Survival rate (%): 99%

## CC(C)Oc1ccc(C=NNC(=N)NN=Cc2ccc(OC(C)C)cc2)cc1.Cl [isopropoxy-phenylguanidine hydrochloride, 2,2′-bis[[4-(isopropoxy)phenyl]methylene]-diaminoguanidine hydrochloride, reference compound]
[1]
  Average daily weight gain: 512 g
  Feed conversion ratio: 1.754
Broilers [2]
  Average daily weight gain: 46.6 g
  Average feed conversion ratio: 2.087
  Survival rate (%): 100%
Cherry Valley ducks
  Average daily weight gain: 65.3 g
  Feed conversion ratio: 1.874

## CC(C)Oc1ccc(C=NNC(=N)NN=Cc2ccc(OC(C)C)cc2)cc1.CC(O)C(=O)O [isopropoxy-phenylguanidine lactate, 2,2′-bis[[4-(isopropoxy)phenyl]methylene]-diaminoguanidine DL-lactate]
[1]
  Average daily weight gain: 535 g
  Feed conversion ratio: 1.701
  effect on production performance compared with hydrochloride: better than hydrochloride
Broilers [2]
  Average daily weight gain: 47.9 g
  Average feed conversion ratio: 2.006
  Survival rate (%): 100%
  effect on production performance compared with hydrochloride: better than hydrochloride
Cherry Valley ducks
  Average daily weight gain: 67.8 g
  Feed conversion ratio: 1.827
  effect on production performance compared with hydrochloride: better than hydrochloride

## CC(C)Oc1ccc(C=NNC(=N)NN=Cc2ccc(OC(C)C)cc2)cc1.O=C(O)/C=C\C(=O)O [isopropoxy-phenylguanidine maleate, 2,2′-bis[[4-(isopropoxy)phenyl]methylene]-diaminoguanidine maleate]
Broilers [2]
  Average daily weight gain: 44.1 g
  Average feed conversion ratio: 2.137
  Survival rate (%): 100%

## CC(C)Oc1ccc(C=NNC(=N)NN=Cc2ccc(OC(C)C)cc2)cc1.O=C(O)C(=O)O [isopropoxy-phenylguanidine oxalate, 2,2′-bis[[4-(isopropoxy)phenyl]methylene]-diaminoguanidine oxalate]
Broilers [2]
  Average daily weight gain: 43.1 g
  Average feed conversion ratio: 2.145
  Survival rate (%): 100%

## CC(C)Oc1ccc(C=NNC(=N)NN=Cc2ccc(OC(C)C)cc2)cc1.O=P(O)(O)O [isopropoxy-phenylguanidine phosphate, 2,2′-bis[[4-(isopropoxy)phenyl]methylene]-diaminoguanidine phosphate]
Broilers [2]
  Average daily weight gain: 44.0 g
  Average feed conversion ratio: 2.139
  Survival rate (%): 100%
Cherry Valley ducks
  Average daily weight gain: 61.2 g
  Feed conversion ratio: 1.926

## CC(C)Oc1ccc(C=NNC(=N)NN=Cc2ccc(OC(C)C)cc2)cc1.O=C(O)CCC(=O)O [isopropoxy-phenylguanidine succinate, 2,2′-bis[[4-(isopropoxy)phenyl]methylene]-diaminoguanidine succinate]
Broilers [2]
  Average daily weight gain: 43.6 g
  Average feed conversion ratio: 2.143
  Survival rate (%): 100%

## CC(C)Oc1ccc(C=NNC(=N)NN=Cc2ccc(OC(C)C)cc2)cc1.O=S(=O)(O)O [isopropoxy-phenylguanidine sulfate, 2,2′-bis[[4-(isopropoxy)phenyl]methylene]-diaminoguanidine sulfate]
Broilers [2]
  Average daily weight gain: 43.7 g
  Average feed conversion ratio: 2.131
  Survival rate (%): 100%

## CC(C)Oc1ccc(C=NNC(=N)NN=Cc2ccc(OC(C)C)cc2)cc1.O=C(O)C(O)C(O)C(=O)O [isopropoxy-phenylguanidine tartrate, 2,2′-bis[[4-(isopropoxy)phenyl]methylene]-diaminoguanidine tartrate]
Broilers [2]
  Average daily weight gain: 43.9 g
  Average feed conversion ratio: 2.131
  Survival rate (%): 98%
